Measurements reported in patent publication US20200361871A1 (Enterprise Therapeutics Ltd., priority 2018, published 2020).
pEC50: −log10 of the molar value.

Biological target: human TMEM16A (TMEM16Aabc variant) (Homo sapiens, UniProt Q5XXA6, DEL476-501, form not given)
Assay: Automated whole-cell patch clamp (Qpatch) TMEM16A potentiator assay in FRT cells stably expressing human TMEM16A
Type: cell-based
Settings: for % Potentiation @ 3.33 μM Avg: 3.33 μM solution of test compound, percentage increase of baseline TMEM16A current; for pEC50: calculated EC50, Qpatch TMEM16A current at +70 mV
Summary of the method: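 Potentiation was read as the rise in peak +70 mV current over baseline (%), from cumulative 5-min additions of compound. Recordings used whole-cell automated patch of FRT cells stably carrying human TMEM16Aabc, with pipette Ca2+ buffered to give ~20% maximal current. EC50 and efficacy came from concentration-response fits.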

Sequence of human TMEM16A (TMEM16Aabc variant) (Q5XXA6 with tags, fused parts or gaps DEL476-501): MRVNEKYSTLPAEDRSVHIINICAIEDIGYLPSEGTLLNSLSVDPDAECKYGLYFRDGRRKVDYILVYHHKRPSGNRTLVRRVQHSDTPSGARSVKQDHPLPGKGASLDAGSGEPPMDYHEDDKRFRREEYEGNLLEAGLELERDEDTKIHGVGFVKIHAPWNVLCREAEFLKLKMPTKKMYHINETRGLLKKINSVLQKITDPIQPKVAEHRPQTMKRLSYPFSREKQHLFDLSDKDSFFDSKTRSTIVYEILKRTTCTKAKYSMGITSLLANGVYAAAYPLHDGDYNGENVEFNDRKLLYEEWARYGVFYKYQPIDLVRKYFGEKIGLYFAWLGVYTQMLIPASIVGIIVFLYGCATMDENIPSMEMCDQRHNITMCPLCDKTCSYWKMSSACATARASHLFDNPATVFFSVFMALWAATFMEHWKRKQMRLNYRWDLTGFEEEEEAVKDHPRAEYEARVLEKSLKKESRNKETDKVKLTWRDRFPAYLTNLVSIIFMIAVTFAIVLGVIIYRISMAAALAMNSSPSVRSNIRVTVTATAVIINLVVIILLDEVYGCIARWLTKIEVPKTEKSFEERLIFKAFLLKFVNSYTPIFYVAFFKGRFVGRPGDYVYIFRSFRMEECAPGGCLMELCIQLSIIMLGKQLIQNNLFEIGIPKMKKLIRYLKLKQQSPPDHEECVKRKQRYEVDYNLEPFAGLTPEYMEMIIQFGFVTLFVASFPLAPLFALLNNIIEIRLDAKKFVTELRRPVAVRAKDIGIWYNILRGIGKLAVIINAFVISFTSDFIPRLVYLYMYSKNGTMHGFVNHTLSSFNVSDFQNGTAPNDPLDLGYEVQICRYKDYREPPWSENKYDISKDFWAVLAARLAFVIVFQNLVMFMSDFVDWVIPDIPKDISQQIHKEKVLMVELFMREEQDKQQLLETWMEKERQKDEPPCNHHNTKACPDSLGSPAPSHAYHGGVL

Compound	% Potentiation @ 3.33 μM Avg [%]	pEC50
CC1(NC(=O)c2cccc(NC(=O)Cc3cc(Cl)ccc3O)c2)CCCCC1 [Example 71.1, 3-[[2-(5-Chloro-2-hydroxy-phenyl)acetyl]amino]-N-(1-methylcyclohexyl)benzamide]	256	6.60
O=C(Cc1cc(Cl)ccc1O)Nc1ccnc(C(=O)N[C@H]2CCC[C@H]2O)c1 [Example 35.19, 4-[[2-(5-Chloro-2-hydroxy-phenyl)acetyl]amino]-N-[(1S,2R)-2-hydroxycyclopentyl]pyridine-2-carboxamide]	248	6.33
CC(C)(C)NC(=O)c1cc(NC(=O)Cc2cccc(Cl)c2)ccn1 [Example 5.5, N-tert-Butyl-4-[[2-(3-chlorophenyl)acetyl]amino]pyridine-2-carboxamide]	132	6.14
CC1(NC(=O)c2cc(NC(=O)Cc3cc(Cl)c(F)cc3O)ccn2)CCC1 [Example 76, 4-[[2-(5-Chloro-4-fluoro-2-hydroxy-phenyl)acetyl]amino]-N-(1-methylcyclobutyl)pyridine-2-carboxamide]	366	6.66
C[C@@H](NC(=O)Nc1ccnc(C(=O)NC(C)(C)C)c1)c1ccccc1 [Example 64.3, N-tert-Butyl-4-[[(1R)-1-phenylethyl]carbamoylamino]pyridine-2-carboxamide]	70	
O=C(Cc1cc(Cl)ccc1O)Nc1ccnc(C(=O)NC(CO)c2ccccn2)c1 (centres unmarked) [Example 35.11, 4-[[2-(5-Chloro-2-hydroxy-phenyl)acetyl]amino]-N-[2-hydroxy-1-(2-pyridyl)ethyl] pyridine-2-carboxamide]	107	
CCC(C)(C)NC(=O)c1cccc(NC(=O)Cc2cc(Cl)ccc2O)c1 [Example 1.5, 3-[[2-(5-Chloro-2-hydroxy-phenyl)acetyl]amino]-N-(1,1-dimethylpropyl)benzamide]	149	6.47
CC(C)(C)NC(=O)c1cc(NC(=O)NCc2ccc(O)cc2)ccn1 [Example 65.4, N-tert-Butyl-4-[(4-hydroxyphenyl)methylcarbamoylamino]pyridine-2-carboxamide]	10	
CC(C)(C)NC(=O)c1cc(NC(=O)Cc2ccc(Cl)c(Cl)c2)ccn1 [Example 5.8, N-tert-Butyl-4-[[2-(3,4-dichlorophenyl)acetyl]amino]pyridine-2-carboxamide]	116	6.34
CC(C)(C)NC(=O)c1cc(NC(=O)Cc2cc(Cl)ccc2F)ccn1 [Example 5.3, N-tert-Butyl-4-[[2-(5-chloro-2-fluoro-phenyl)acetyl]amino]pyridine-2-carboxamide]	152	6.06
CC(C)(C)NC(=O)c1cc(NC(=O)Cc2ccco2)ccn1 [Example 5.4, N-tert-Butyl-4-[[2-(2-furyl)acetyl]amino] pyridine-2-carboxamide]	57	
CC(C)(C)NC(=O)c1cc(NC(=O)Cc2cc(O)cc(Cl)c2)ccn1 [Example 3.17b, N-tert-Butyl-4-[[2-(3-chloro-5-hydroxy-phenyl)acetyl]amino]pyridine-2-carboxamide]	227	6.92
CC(C)(NC(=O)c1cc(NC(=O)Cc2cc(Cl)ccc2O)ccn1)c1ccccn1 [Example 35.9, 4-[[2-(5-Chloro-2-hydroxy-phenyl)acetyl]amino]-N-[1-methyl-1-(2-pyridyl)ethyl]pyridine-2-carboxamide]	455	6.27
COc1ccc(Cl)c(CC(=O)Nc2ccnc(C(=O)NC3(C#N)CC3)c2)c1 [Example 24, 4-[[2-(2-Chloro-5-methoxy-phenyl)acetyl]amino]-N-(1-cyanocyclopropyl)pyridine-2-carboxamide]	68	
CC1(NC(=O)c2cccc(NC(=O)Cc3cc(Cl)ccc3O)c2)CCC1 [Example 7.10, 3-[[2-(5-Chloro-2-hydroxy-phenyl)acetyl]amino]-N-(1-methylcyclobutyl)benzamide]	218	6.44
C#CC(C)(C)NC(=O)c1cc(NC(=O)Cc2ccc(Cl)cc2O)ccn1 [Example 78, 4-[[2-(4-Chloro-2-hydroxy-phenyl)acetyl]amino]-N-(1,1-dimethylprop-2-ynyl)pyridine-2-carboxamide]	98	7.70
CC(C)(C)NC(=O)c1cc(NC(=O)Cc2cc(Cl)ccc2O)ccc1O [Example 11, N-tert-Butyl-5-[[2-(5-chloro-2-hydroxy-phenyl)acetyl]amino]-2-hydroxy-benzamide]	76	6.05
CC(C)(C#N)NC(=O)c1cc(NC(=O)Cc2ccc(C(C)(C)C)c(O)c2)ccn1 [Example 93.4, 4-[[2-(4-tert-Butyl-3-hydroxy-phenyl)acetyl]amino]-N-(1-cyano-1-methyl-ethyl)pyridine-2-carboxamide]	476	7.15

Compound	% Potentiation @ 3.33 μM Avg [%]	pEC50
CCC(C)(C)NC(=O)c1cc(NC(=O)Cc2ccc(F)cc2O)ccn1 [Example 3.1a, N-(1,1-Dimethylpropyl)-4-[[2-(4-fluoro-2-hydroxy-phenyl)acetyl]amino]pyridine-2-carboxamide]	128	6.74
CC(C)(C)c1ccc(O)c(CC(=O)Nc2ccnc(C(=O)NC3(C#N)CCC3)c2)c1 [Example 3.5a, 4-[[2-(5-tert-Butyl-2-hydroxy-phenyl)acetyl]amino]-N-(1-cyanocyclobutyl)pyridine-2-carboxamide]	311	6.30
C#CC(C)(C)NC(=O)c1cc(NC(=O)CC2OCCc3ccccc32)ccn1 (centres unmarked) [Example 5.33, N-(1,1-Dimethylprop-2-ynyl)-4-[(2-isochroman-1-ylacetyl)amino]pyridine-2-carboxamide]	49	
CC(C)(C)NC(=O)c1cc(NC(=O)Cc2ccc(F)cc2)ccn1 [Example 5.13, N-tert-Butyl-4-[[2-(4-fluorophenyl)acetyl]amino]pyridine-2-carboxamide]	94	5.94
CC(C)NC(=O)c1cc(NC(=O)Cc2cc(Cl)ccc2O)ccn1 [Example 7.7, 4-[[2-(5-Chloro-2-hydroxy-phenyl)acetyl]amino]-N-isopropyl-pyridine-2-carboxamide]	234	6.89
COc1ccccc1CNC(=O)Nc1ccnc(C(=O)NC(C)(C)C)c1 [Example 65.1, N-tert-Butyl-4-[(2-methoxyphenyl)methylcarbamoylamino]pyridine-2-carboxamide]	75	6.33
C#CC(C)(C)NC(=O)c1cc(NC(=O)Cc2ccc(C(F)(F)F)cc2O)ccn1 [Example 78.1, N-(1,1-Dimethylprop-2-ynyl)-4-[[2-[2-hydroxy-4-(trifluoromethyl)phenyl]acetyl]amino]pyridine-2-carboxamide]	238	7.30
CC(C)(CCNC(=O)C(C)(C)C)NC(=O)c1cc(NC(=O)Cc2cc(Cl)ccc2O)ccn1 [Example 45, 4-[[2-(5-Chloro-2-hydroxy-phenyl)acetyl]amino]-N-[3-(2,2-dimethylpropanoylamino)-1,1-dimethyl-propyl]pyridine-2-carboxamide]	151	
O=C(Cc1cc(Cl)ccc1O)Nc1ccnc(C(=O)Nc2ncc[nH]2)c1 [Example 32.9, 4-[[2-(5-Chloro-2-hydroxy-phenyl)acetyl]amino]-N-(1H-imidazol-2-yl)pyridine-2-carboxamide]	31	
N#CC1(NC(=O)c2cc(NC(=O)Cc3cc(F)ccc3O)ccn2)CCOCC1 [Example 48.1, N-(4-Cyanotetrahydropyran-4-yl)-4-[[2-(5-fluoro-2-hydroxy-phenyl)acetyl]amino] pyridine-2-carboxamide]	185	6.38
COC(=O)C1(NC(=O)c2cc(NC(=O)Cc3cc(Cl)ccc3O)ccn2)CCOCC1 [Example 47.2, Methyl 4-[[4-[[2-(5-chloro-2-hydroxy-phenyl)acetyl]amino]pyridine-2-carbonyl]amino]tetrahydropyran-4-carboxylate]	212	6.64
CC(C)(C)NC(=O)c1cc(NC(=O)Nc2c[nH]c3ccccc23)ccn1 [Example 64.6, N-tert-butyl-4-(1H-indol-3-ylcarbamoylamino)pyridine-2-carboxamide]	0	
CC(C)(C)NC(=O)c1cc(F)cc(NC(=O)Cc2cc(Cl)ccc2O)c1 [Example 18, N-tert-Butyl-3-[[2-(5-chloro-2-hydroxy-phenyl)acetyl]amino]-5-fluoro-benzamide]	405	6.35
CC(C)(C)NC(=O)c1cc(NC(=O)Cc2cc(Cl)ccc2O)c(Cl)cn1 [Example 55, N-tert-Butyl-5-chloro-4-[[2-(5-chloro-2-hydroxy-phenyl)acetyl]amino]pyridine-2-carboxamide]	114	
O=C(Cc1cc(Cl)ccc1O)Nc1ccnc(C(=O)NC23CC(C2)C3)c1 [Example 7.15, N-(3-Bicyclo[1.1.1]pentanyl)-4-[[2-(5-chloro-2-hydroxy-phenyl)acetyl]amino]pyridine-2-carboxamide]	230	7.30
C#CC(C)(C)NC(=O)c1cc(NC(=O)CC2CCOc3ccccc32)ccn1 (centres unmarked) [Example 79, 4-[(2-Chroman-4-ylacetyl)amino]-N-(1,1-dimethylprop-2-ynyl)pyridine-2-carboxamide]	60	
CC(C)(C)NC(=O)c1cc(NC(=O)Cc2c(Cl)cccc2Cl)ccn1 [Example 5.17, N-tert-Butyl-4-[[2-(2,6-dichlorophenyl)acetyl]amino]pyridine-2-carboxamide]	94	6.19
